Experimental data: patent US5112594A, “Kit for preparing a technetium-99m myocardial imaging agent” (Mallinckrodt Medical, Inc., priority 1991, dated 1992)

Assay: Biodistribution Data of Selected Tc-99m(III) Complexes in Guinea Pigs
Type: in vivo
Conditions: for Heart/Blood / Heart/Liver: ratio

Substance	% Heart uptake (5 min)	% Heart uptake (60 min)	Heart/Blood (5 min)	Heart/Liver (5 min)	Heart/Blood (60 min)	Heart/Liver (60 min)
trans-[1,2-bis[dihydro-2,2,5,5-tetramethyl-3(2H)furanone-4-methyleneamino]ethane]bis-[tris(2-(2-(1,3-dioxanyl))]ethylphosphine]technetium-99m(III) [Complex IV]	0.8 % Injected dose/Organ	0.9 % Injected dose/Organ	5.4	1.2	58.6	3.0
trans-[1,2-bis[dihydro-2,2,5,5-tetramethyl-3(2H)furanone-4-methyleneamino]ethane]bis[tris(3-methoxypropyl)phosphine]technetium-99m(III) [Complex I]	0.8 % Injected dose/Organ	0.9 % Injected dose/Organ	4.6	1.5	35.6	6.6
trans-[1,2-bis[dihydro-2,2,5,5-tetramethyl-3(2H)furanthione-4-methyleneamino]ethane]-bis[tris(3-methoxypropyl)phosphine]technetium-99m (III) [Complex III]	1.1 % Injected dose/Organ	1.0 % Injected dose/Organ	5.9	0.9	3.5	1.5
trans-[1-[dihydro-2,2,5,5-tetramethyl-3(2H)furanthione-4-methyleneamino]-2-[dihydro-2,2,5,5-tetramethyl-3(2H)furanone-4-methyleneaminoethane]bis[tris(3-methoxypropyl)phosphine]technetium-99m(III) [Complex II]	0.9 % Injected dose/Organ	0.8 % Injected dose/Organ	6.1	1.6	26.5	5.6
